# According to patent publication US20220281848A1, “PYRAZOLE-SUBSTITUTED PYRROLIDINONES AS HERBICIDES” (FMC Corporation, priority 2019, published 2022):
# Test system: plants
# Assay: Test D pre-emergence, other plants of Tables D1 and D3
# Type: in vivo
# Conditions: preemergent, 20 DAA
# Protocol: A formulation containing 50 g/L of the test chemical was prepared by dissolving the active ingredient in a mixture of organic solvents and emulsifier, details of which are provided in the table. This formulation was then mixed with a small, variable amount of acetone to aid dissolution, before addition of a 0.2% v/v aqueous solution of an adjuvant, as the aqueous diluent, to form an aqueous spray solution which contains a predetermined concentration of the active ingredient.
# This aqueous spray solution was then sprayed onto plants including maize and wheat that had been seed treated with a herbicide safener, after one day's cultivation (for pre-emergence) or after about 12 days' cultivation (for post-emergence). The plants were grown from seeds sown in standard soil, placed in a glasshouse under controlled conditions (at 24/18° C. or 20/16° C., day/night; 16 h light; 65% humidity). After spray application the plants were then grown in a glasshouse under the same conditions and watered twice daily. After 15 d for post-emergence and 20 DAA for pre-emergence the test was evaluated (100=total damage to plant; 0=no damage to plant).
smiles,measurement,setting,value
CN1CC(c2cc(C(F)(F)F)n(C)n2)C(C(=O)Nc2ccccc2F)C1=O (racemic) [Compound 9],"damage to plant (100=total damage to plant; 0=no damage to plant), ABUTH",rate 15,0
same,"damage to plant (100=total damage to plant; 0=no damage to plant), ABUTH",rate 30,0
same,"damage to plant (100=total damage to plant; 0=no damage to plant), ABUTH",rate 60,0
same,"damage to plant (100=total damage to plant; 0=no damage to plant), ABUTH",rate 130,0
same,"damage to plant (100=total damage to plant; 0=no damage to plant), ABUTH",rate 250,10
same,"damage to plant (100=total damage to plant; 0=no damage to plant), ABUTH",rate 500,10
same,"damage to plant (100=total damage to plant; 0=no damage to plant), AMARE",rate 15,0
same,"damage to plant (100=total damage to plant; 0=no damage to plant), AMARE",rate 30,0
same,"damage to plant (100=total damage to plant; 0=no damage to plant), AMARE",rate 500,0
same,"damage to plant (100=total damage to plant; 0=no damage to plant), BIDPI",rate 15,0
same,"damage to plant (100=total damage to plant; 0=no damage to plant), BIDPI",rate 30,0
same,"damage to plant (100=total damage to plant; 0=no damage to plant), BIDPI",rate 60,0
same,"damage to plant (100=total damage to plant; 0=no damage to plant), BIDPI",rate 130,0
same,"damage to plant (100=total damage to plant; 0=no damage to plant), BIDPI",rate 250,0
same,"damage to plant (100=total damage to plant; 0=no damage to plant), BIDPI",rate 500,0
same,"damage to plant (100=total damage to plant; 0=no damage to plant), BRAPL",rate 15,0
same,"damage to plant (100=total damage to plant; 0=no damage to plant), BRAPL",rate 30,10
same,"damage to plant (100=total damage to plant; 0=no damage to plant), BRAPL",rate 60,30
same,"damage to plant (100=total damage to plant; 0=no damage to plant), BRAPL",rate 130,90
same,"damage to plant (100=total damage to plant; 0=no damage to plant), BRAPL",rate 250,100
same,"damage to plant (100=total damage to plant; 0=no damage to plant), BRAPL",rate 500,100
same,"damage to plant (100=total damage to plant; 0=no damage to plant), CYPES",rate 15,0
same,"damage to plant (100=total damage to plant; 0=no damage to plant), CYPES",rate 30,0
same,"damage to plant (100=total damage to plant; 0=no damage to plant), CYPES",rate 60,0
same,"damage to plant (100=total damage to plant; 0=no damage to plant), CYPES",rate 130,0
same,"damage to plant (100=total damage to plant; 0=no damage to plant), CYPES",rate 250,0
same,"damage to plant (100=total damage to plant; 0=no damage to plant), CYPES",rate 500,0
same,"damage to plant (100=total damage to plant; 0=no damage to plant), DIGSA",rate 15,0
same,"damage to plant (100=total damage to plant; 0=no damage to plant), DIGSA",rate 30,80
same,"damage to plant (100=total damage to plant; 0=no damage to plant), DIGSA",rate 60,80
same,"damage to plant (100=total damage to plant; 0=no damage to plant), DIGSA",rate 130,100
same,"damage to plant (100=total damage to plant; 0=no damage to plant), DIGSA",rate 250,90
same,"damage to plant (100=total damage to plant; 0=no damage to plant), DIGSA",rate 500,100
same,"damage to plant (100=total damage to plant; 0=no damage to plant), ECHCG",rate 15,0
same,"damage to plant (100=total damage to plant; 0=no damage to plant), ECHCG",rate 30,20
same,"damage to plant (100=total damage to plant; 0=no damage to plant), ECHCG",rate 60,80
same,"damage to plant (100=total damage to plant; 0=no damage to plant), ECHCG",rate 130,90
same,"damage to plant (100=total damage to plant; 0=no damage to plant), ECHCG",rate 250,90
same,"damage to plant (100=total damage to plant; 0=no damage to plant), ECHCG",rate 500,90
same,"damage to plant (100=total damage to plant; 0=no damage to plant), ELEIN",rate 15,0
same,"damage to plant (100=total damage to plant; 0=no damage to plant), ELEIN",rate 30,0
same,"damage to plant (100=total damage to plant; 0=no damage to plant), ELEIN",rate 60,0
same,"damage to plant (100=total damage to plant; 0=no damage to plant), ELEIN",rate 130,0
same,"damage to plant (100=total damage to plant; 0=no damage to plant), ELEIN",rate 250,0
same,"damage to plant (100=total damage to plant; 0=no damage to plant), ELEIN",rate 500,0
same,"damage to plant (100=total damage to plant; 0=no damage to plant), EPHHL",rate 15,0
same,"damage to plant (100=total damage to plant; 0=no damage to plant), EPHHL",rate 30,0
same,"damage to plant (100=total damage to plant; 0=no damage to plant), EPHHL",rate 60,0
same,"damage to plant (100=total damage to plant; 0=no damage to plant), EPHHL",rate 130,0
same,"damage to plant (100=total damage to plant; 0=no damage to plant), EPHHL",rate 500,10
same,"damage to plant (100=total damage to plant; 0=no damage to plant), GLXMA",rate 15,0
same,"damage to plant (100=total damage to plant; 0=no damage to plant), GLXMA",rate 30,0
same,"damage to plant (100=total damage to plant; 0=no damage to plant), GLXMA",rate 60,0
same,"damage to plant (100=total damage to plant; 0=no damage to plant), GLXMA",rate 130,0
same,"damage to plant (100=total damage to plant; 0=no damage to plant), GLXMA",rate 250,0
same,"damage to plant (100=total damage to plant; 0=no damage to plant), GLXMA",rate 500,0
same,"damage to plant (100=total damage to plant; 0=no damage to plant), IPOHE",rate 15,0
same,"damage to plant (100=total damage to plant; 0=no damage to plant), IPOHE",rate 30,0
same,"damage to plant (100=total damage to plant; 0=no damage to plant), IPOHE",rate 60,0
same,"damage to plant (100=total damage to plant; 0=no damage to plant), IPOHE",rate 130,0
same,"damage to plant (100=total damage to plant; 0=no damage to plant), IPOHE",rate 250,0
same,"damage to plant (100=total damage to plant; 0=no damage to plant), IPOHE",rate 500,0
same,"damage to plant (100=total damage to plant; 0=no damage to plant), ORYSA",rate 15,0
same,"damage to plant (100=total damage to plant; 0=no damage to plant), ORYSA",rate 30,0
same,"damage to plant (100=total damage to plant; 0=no damage to plant), ORYSA",rate 60,0
same,"damage to plant (100=total damage to plant; 0=no damage to plant), ORYSA",rate 130,0
same,"damage to plant (100=total damage to plant; 0=no damage to plant), ORYSA",rate 250,0
same,"damage to plant (100=total damage to plant; 0=no damage to plant), ORYSA",rate 500,0
same,"damage to plant (100=total damage to plant; 0=no damage to plant), PANMI",rate 15,0
same,"damage to plant (100=total damage to plant; 0=no damage to plant), PANMI",rate 30,0
same,"damage to plant (100=total damage to plant; 0=no damage to plant), PANMI",rate 60,0
same,"damage to plant (100=total damage to plant; 0=no damage to plant), PANMI",rate 130,0
same,"damage to plant (100=total damage to plant; 0=no damage to plant), PANMI",rate 250,0
same,"damage to plant (100=total damage to plant; 0=no damage to plant), PANMI",rate 500,0
same,"damage to plant (100=total damage to plant; 0=no damage to plant), SETFA",rate 15,0
same,"damage to plant (100=total damage to plant; 0=no damage to plant), SETFA",rate 30,0
same,"damage to plant (100=total damage to plant; 0=no damage to plant), SETFA",rate 60,0
same,"damage to plant (100=total damage to plant; 0=no damage to plant), SETFA",rate 130,50
same,"damage to plant (100=total damage to plant; 0=no damage to plant), SETFA",rate 250,70
same,"damage to plant (100=total damage to plant; 0=no damage to plant), SETFA",rate 500,90
same,"damage to plant (100=total damage to plant; 0=no damage to plant), SIDSP",rate 15,0
same,"damage to plant (100=total damage to plant; 0=no damage to plant), SIDSP",rate 30,0
same,"damage to plant (100=total damage to plant; 0=no damage to plant), SIDSP",rate 60,0
same,"damage to plant (100=total damage to plant; 0=no damage to plant), SIDSP",rate 130,0
same,"damage to plant (100=total damage to plant; 0=no damage to plant), SIDSP",rate 250,0
same,"damage to plant (100=total damage to plant; 0=no damage to plant), SIDSP",rate 500,0
same,"damage to plant (100=total damage to plant; 0=no damage to plant), SORVU",rate 15,0
same,"damage to plant (100=total damage to plant; 0=no damage to plant), SORVU",rate 30,0
same,"damage to plant (100=total damage to plant; 0=no damage to plant), SORVU",rate 60,0
same,"damage to plant (100=total damage to plant; 0=no damage to plant), SORVU",rate 130,0
same,"damage to plant (100=total damage to plant; 0=no damage to plant), SORVU",rate 250,0
